Assay results: patent publication US20250213463A1, “TOPICAL COMPOSITION AND USES THEREOF” (COTY INC., priority 2021, published 2025)

Tested on: Normal human primary fibroblasts
Experiment: Fibronectin release by UV-irradiated normal human primary fibroblasts (Human Magnetic Luminex Assay)
Type: cell-based
Procedure: Normal human primary fibroblasts were seeded in culture well plates at 200,000 cells/cm^2 with DMEM (Dulbecco's Modified Eagle Medium) culture medium. 24 hours later, culture medium was removed, cells were rinsed with PBS (Phosphate Buffered Saline), and fresh PBS was applied to the cells. Cells were then exposed to UV irradiation (from 300 to 400 nm) for a time to cause physical and/or chemical UV-induced change, without exposure to active ingredients. Immediately after irradiation, PBS was removed and the active ingredients creatine, palmitoylTripeptide-5 (Lys-Val-Lys) and bifida ferment lysate diluted in culture medium were applied for 72 hours. Cells were incubated at +37° C. with 5% CO2.
Quantification of fibronectin release was performed by using Human Magnetic Luminex Assays (ref: LXSAHM-03) according to the protocol described by the supplier. Results were expressed in pg/ml.

Molecule | increase in fibronectin production over either no treatment or creatine treatment alone (UV-irradiated fibroblasts, 72 hours treatment) | fibronectin production in irradiated cells (fibroblasts exposed to UV (300 to 400 nm), then actives in culture medium for 72 hours) | effect on fibronectin production/levels (in words) (UV-irradiated fibroblasts, 72 hours treatment, FIG. 1)
palmitoylTripeptide-5 (Lys-Val-Lys) | 36.9% | 550K | 
CN(CC(=O)O)C(=N)N [Creatine] |  |  | does not appear to exert a positive impact
